d = 2'-deoxy (DNA); r = 2'-OH (RNA)
How the values were obtained:
Format in all cases: cell-based, human
PC-3 cells [1] = test: Flow cytometry of propidium iodide-stained nuclei (apoptosis, cell cycle), PC-3 cells
Experimental: Flow cytometry of propidium iodide-stained nuclei was performed as described previously (Rocchi et al., 2004, Cancer Res. 64:6595-602). In brief, PC-3 cells were plated at the density of 10^6 cells into 10 cm dishes in DMEM supplemented with 10% FCS. To assess the effect of TCTP inhibition on apoptosis and cell cycle, cells were treated the day after seeding with 5 nM of siRNA TCTP or control and 100 nM of ASO TCTP or scrambled control for 48 h. Cells were then treated with 50 nM of docetaxel. After 24 h, the cells were analyzed for relative DNA content on a dual laser flow cytometer (FACSCalibur, Becton Dickinson Biosciences, Le Pont de Claix, France). Each assay was performed in triplicate.
(§1) Flow cytometry was used to quantify the percentage of cells in each cell cycle phase three days after the siRNA treatment. After the treatment of PC-3 cells with 5 nM TCTP siRNA for 1 day, the fraction of cells undergoing apoptosis (sub-G1/G0 fraction) was 25% higher after treatment with 5 nM TCTP siRNA compared with scrambled control siRNA (**, P≤0.01; FIG. 6, upper panel). Using TCTP ASO treatment alone, we found an increase of 75% in sub-G0G1 fraction (***, P≤0.001; FIG. 6, middle and bottom panel), enhanced by the 50 nM docetaxel treatment (90% in sub-G0-G1 fraction, ***, P≤0.001). […] The fraction of PC-3 in S phase was 20 to 40% lower after TCTP siRNA or ASO treatments respectively compared to the scrambled controls (FIG. 6). […] The rate of apoptotic PC-3 cells after TCTP silencing with different ASO concentrations was explored with the Invitrogen countess (FIG. 6 and FIG. 7A). PC-3 cells were treated with 70, 100 or 200 nM of TCTP ASO or control. Cells were harvested 3 days after treatment and […] of trypan blue was added before analysis with Invitrogen Countess. […] Moreover, TCTP has been reported to interact with caspase-3, thereby inhibiting caspase-3 activation (Gnanasekar et al., 2009, Int J Oncol. 34:1241-6). In order to investigate the effect of TCTP silencing on caspase-3 cleavage and activity, PC-3 cells were treated daily with 100 nM TCTP or scrambled ASO for 2 days. Cells were harvested 2 days after and proteins were extracted for western blotting with a caspase-3 antibody that recognizes both full-length and cleaved caspase-3.
PC3 cells were transfected with a TCTP siRNA of SEQ ID NO: 3. Cell proliferation and apoptosis were studied using respectively MTT (3-(4,5-dimethylthiazol-2-yl)-2,5-diphenyl tetrazolium bromure) assay and flow cytometry.
PC3 cells were transfected with a TCTP ASO of SEQ ID NO: 2. Cell proliferation and apoptosis were studied using respectively MTT assay and flow cytometry.

TCTP = TCTP protein level by Western blot in PC-3 cells treated with siRNA or ASO
Experimental: Western Blot analysis was performed as described previously (Rocchi et al., 2004, Cancer Res. 64:6595-602) with 1:5000 rabbit anti-Hsp27 polyclonal antibody (Assay Designs, Villeurbanne, France), 1:2000 rabbit TCTP polyclonal antibody (Abcam Inc., Cambridge, UK), 1:250 rabbit anti-MSL1v1 polyclonal antibody (Abcam Inc.), 1:500 mouse anti-ubiquitin monoclonal antibody (Santa Cruz Biotechnology Inc., Heidelberg, Germany) or 1:1000 rabbit anti-caspase-3 polyclonal antibody (Cell Signalling Technology Inc., Danvers, USA). Loading levels were normalized using 1:5000 rabbit anti-glyceraldehyde-3-phosphate dehydrogenase polyclonal (Abcam Inc.) or 1:2500 mouse anti-vinculine monoclonal antibodies (Sigma Chemical Co., St Louis, Mo., USA). […]
To determine whether the inhibition of TCTP expression affects CR progression in vitro, ASO- or siRNA-induced inhibition of TCTP expression was determined by Western blot analysis. […] Total RNA was extracted and TCTP levels were analyzed by qRT-PCR. After the normalization of TCTP mRNA with 18S rRNA levels, results were analysed with the 2(-Delta Delta C(T)) Method (FIG. 5A). Each sample was analyzed in triplicate. ** differs from PC-3 transfected with control-siRNA (P≤0.01) and *** with ASO control (P≤0.001) using Statview software.

caspase-3 = test: Caspase-3 cleavage by western blot in PC-3 cells; settings: not in control treated cells
Experimental: Western Blot analysis was performed as described previously (Rocchi et al., 2004, Cancer Res. 64:6595-602) with 1:5000 rabbit anti-Hsp27 polyclonal antibody (Assay Designs, Villeurbanne, France), 1:2000 rabbit TCTP polyclonal antibody (Abcam Inc., Cambridge, UK), 1:250 rabbit anti-MSL1v1 polyclonal antibody (Abcam Inc.), 1:500 mouse anti-ubiquitin monoclonal antibody (Santa Cruz Biotechnology Inc., Heidelberg, Germany) or 1:1000 rabbit anti-caspase-3 polyclonal antibody (Cell Signalling Technology Inc., Danvers, USA). Loading levels were normalized using 1:5000 rabbit anti-glyceraldehyde-3-phosphate dehydrogenase polyclonal (Abcam Inc.) or 1:2500 mouse anti-vinculine monoclonal antibodies (Sigma Chemical Co., St Louis, Mo., USA).
Flow cytometry was used to quantify the percentage of cells in each cell cycle phase three days after the siRNA treatment. After the treatment of PC-3 cells with 5 nM TCTP siRNA for 1 day, the fraction of cells undergoing apoptosis (sub-G1/G0 fraction) was 25% higher after treatment with 5 nM TCTP siRNA compared with scrambled control siRNA (**, P≤0.01; FIG. 6, upper panel). Using TCTP ASO treatment alone, we found an increase of 75% in sub-G0G1 fraction (***, P≤0.001; FIG. 6, middle and bottom panel), enhanced by the 50 nM docetaxel treatment (90% in sub-G0-G1 fraction, ***, P≤0.001). […]

PC-3 cells [2] = test: Viability assay by Invitrogen Countess (trypan blue), PC-3 cells
Experimental: PC-3 cells were treated with 70, 100 or 200 nM of TCTP ASO or control. 3 days after, the cells were harvested, combined with 10 μl of trypan blue and counted with Invitrogen Countess. Viability, cell concentration and size were recorded for each sample following the manufacturer's instructions.
as §1

Row | Substance | fraction of cells undergoing apoptosis (sub-G1/G0 fraction) higher than scrambled control siRNA (PC-3 cells [1]; PC-3, 5 nM siRNA for 1 day) [%] | increase of the percentage of apoptotic cells (PC-3 cells [1]; TCTP siRNA, PC3, flow cytometry (summary, FIG. 12)) [%] | fraction of PC-3 in S phase lower than scrambled control (PC-3 cells [1]; siRNA treatment) [%] | inhibition of TCTP protein (TCTP; siRNA at 5 nM) | active cleaved caspase-3 fragments (17-20 kDa) (caspase-3) | rate of apoptotic cells (PC-3 cells [2]; PC-3, TCTP siRNA) | fraction of PC-3 in S phase lower than scrambled control (PC-3 cells [1]; ASO treatment) [%] | increase in sub-G0-G1 fraction (PC-3 cells [1]; PC-3, TCTP ASO plus 50 nM docetaxel) [%] | increase in sub-G0G1 fraction (PC-3 cells [1]; PC-3, TCTP ASO treatment alone) [%] | increase of the percentage of apoptotic cells (PC-3 cells [1]; TCTP ASO, PC3, flow cytometry (summary, FIG. 13)) [%] | inhibition of TCTP protein (TCTP; ASO at 100 nM) | rate of apoptotic cells (PC-3 cells [2]; PC-3, 70 nM ASO, three days after transfection) [%] | rate of apoptotic cells (PC-3 cells [2]; PC-3, 100 nM ASO, three days after transfection) [%] | rate of apoptotic cells (PC-3 cells [2]; PC-3, 200 nM ASO, three days after transfection) [%]
1 | 5′-AACCCGUCCGCGAUCUCCCdGdG-3′ (AACCCGUCCGCGAUCUCCCGG; siRNA; sugars from the 5' end r19 d2, backbone not given here) [TCTP siRNA, from Qiagen] | 25 | 25.8 | 20 | significant inhibition | presence of active cleaved caspase-3 fragments | Same effects | – | – | – | – | – | – | – | –
2 | 5′-ACCAATGAGCGAGTCATCAA-3′ (phosphorothioate backbone, further chemistry not given here) [ASO10] | – | – | – | – | presence of active cleaved caspase-3 fragments | – | 40 | 90 | 75 | 70 | significant inhibition | 100 | 200 | 300

Reference: patent publication US10105384B2, “Nucleic acids targeting TCTP for use in the treatment of chemo- or hormone-resistant cancers” (INSTITUT NATIONAL DE LA SANTE ET DE LA RECHERCHE MEDICALE …, priority 2010, dated 2018)
